Where two headings read alike, the source gives them in different places.
Assays:
GSK3β = GSK3β (Homo sapiens (Human), UniProt P49841); experiment: Kinase selectivity panel: GSK3β; type: biochemical
Excerpt: (§1) Compounds of the present invention were screened for their inhibitory activity against MAP4K4, versus selected off-target hits found with early members of this chemical series. MAP4K4 kinase activity was monitored using the CisBio HTRF Transcreener ADP assay, acompetitive immunoassay with a reproducible Z′>0.6. In the detection step, endogenous ADP and d2-labeled ADP compete for binding an anti-ADP monoclonal antibody labelled with Eu^3+ cryptate. A ratiometric fluorescent read-out is used at 665 and 620 nm. […] Assays were run in Greiner low volume plates with a final reaction volume of 10 μl. The MAP4K4 inhibition data are provided in Table 33 below for selected compounds of the present invention. The data has been categorised based on the IC50 value of the compound as “A”, “B” or “C”.
(§2) The data in Table 34 also provides the fold selectivity of the two compounds in favour of MAP4K4 over the tested kinase. The fold selectivity is indicated in parenthesis.

TNIK/MAP4K7 = TNIK/MAP4K7 (Homo sapiens (Human), UniProt Q9UKE5); experiment: Kinase selectivity panel: TNIK/MAP4K7; type: biochemical; conditions: read-out: pIC50 TNIK/MAP4K7 (converted)
Excerpt: as §1, §2

MLK3/MAP3K11 = MLK3/MAP3K11 (Homo sapiens (Human), UniProt Q16584); experiment: Kinase selectivity panel: MLK3/MAP3K11; type: biochemical; conditions: for IC50: read-out: pIC50 MLK3/MAP3K11 (converted)
Excerpt: as §1, §2

[1] = molecular target: human MAP4K4 kinase domain (Homo sapiens (Human), UniProt O95819); experiment: MAP4K4 kinase activity, CisBio HTRF Transcreener ADP assay; type: biochemical
Excerpt: as §1

VEGFR = experiment: Kinase selectivity panel: VEGFR; type: biochemical
Procedure: (§3) In the detection step, endogenous ADP and d2-labeled ADP compete for binding an anti-ADP monoclonal antibody labelled with Eu^3+ cryptate. […] Assays were run in Greiner low volume plates with a final reaction volume of 10 μl.
(§4) The fold selectivity is indicated in parenthesis.

MINK1/MAP4K6 = MINK1/MAP4K6 (Homo sapiens (Human), UniProt Q8N4C8); experiment: Kinase selectivity panel: MINK1/MAP4K6; type: biochemical; conditions: read-out: pIC50 MINK1/MAP4K6 (converted)
Excerpt: as §1, §2

FLT3 = FLT3 (Homo sapiens (Human), UniProt P36888); experiment: Kinase selectivity panel: FLT3; type: biochemical; conditions: for IC50: read-out: pIC50 FLT3 (converted)
Excerpt: as §1, §2

MLK1/MAP3K9 = MLK1/MAP3K9 (Homo sapiens (Human), UniProt P80192); experiment: Kinase selectivity panel: MLK1/MAP3K9; type: biochemical; conditions: for IC50: read-out: pIC50 MLK1/MAP3K9 (converted)
Excerpt: as §1, §2

GCK/MAP4K2 = GCK/MAP4K2 (Homo sapiens (Human), UniProt Q12851); experiment: Kinase selectivity panel: GCK/MAP4K2; type: biochemical; conditions: for IC50: read-out: pIC50 GCK/MAP4K2 (converted)
Excerpt: as §1, §2

KHS/MAP4K5 = KHS/MAP4K5 (Homo sapiens (Human), UniProt Q9Y4K4); experiment: Kinase selectivity panel: KHS/MAP4K5; type: biochemical; conditions: for IC50: read-out: pIC50 KHS/MAP4K5 (converted)
Excerpt: as §1, §2

NUAK = experiment: Kinase selectivity panel: NUAK; type: biochemical
Procedure: as §3, §4

GLK/MAP4K3 = GLK/MAP4K3 (Homo sapiens (Human), UniProt Q8IVH8); experiment: Kinase selectivity panel: GLK/MAP4K3; type: biochemical; conditions: for IC50: read-out: pIC50 GLK/MAP4K3 (converted)
Excerpt: as §1, §2

ABL1 = ABL1 (Homo sapiens (Human), UniProt P00519); experiment: Kinase selectivity panel: ABL1; type: biochemical; conditions: for IC50: read-out: pIC50 ABL1 (converted)
Excerpt: as §1, §2

Aurora B = Aurora B (Homo sapiens (Human), UniProt Q96GD4); experiment: Kinase selectivity panel: Aurora B; type: biochemical; conditions: for IC50: read-out: pIC50 Aurora B (converted)
Excerpt: as §1, §2

[2] = system: CorV.4U cardiomyocytes (hiPSC-CMs); experiment: Protection of CorV.4U cardiomyocytes from H2O2 or menadione (luminescent cell viability assay, human cardiac troponin assay); type: cell-based; conditions: 10 μM; luminescent cell viability assay, human cardiac troponin assay
Excerpt: To substantiate the hypothesis that pharmacological inhibition of MAP4K4 would confer resistance to cell death in human cardiomyocytes, cytoprotection was next assessed using hiPSC-CMs.

[3] = system: iCell cardiomyocytes (hiPSC-CMs); experiment: Human cardiac muscle cell death in iCell cardiomyocytes (DRAQ7 uptake); type: cell-based; conditions: 1.25 μM, lowest concentration tested
Excerpt: First, the expression of cardiomyocyte-specific markers and of MAP4K4 protein was validated (FIG. 5A, B). Two of three shRNAs directed against human MAP4K4 reduced expression >60%, with no extraneous effect on M/NK/MAP4K6 and TN/K/MAP4K7, the most closely related genes (FIG. 5C). Cell death was quantified by high-content analysis (FIG. 5D) as the loss of membrane integrity (DRAQ7 uptake) in successfully transduced (GFP^+) hiPSC-CMs (Myh6-RFP^+). Each of the two potent shRNAs conferred protection against H2O2: myocyte loss was reduced up to 50% (FIG. 5E).
To substantiate the hypothesis that pharmacological inhibition of MAP4K4 would confer resistance to cell death in human cardiomyocytes, cytoprotection was next assessed using hiPSC-CMs. […] Human cardiac muscle cell protection was substantiated in a second, independent line, CorV.4U cardiomyocytes, which are more highly enriched for ventricular myocytes.

[4] = mouse, in vivo
[5] = ATP at Km (10 μM), 0.5 nM kinase domain, 2 h, read-out: MAP4K4
[6] = read-out: pIC50 MAP4K4 (converted)

Sequence of KHS/MAP4K5 (Q9Y4K4 whole entry): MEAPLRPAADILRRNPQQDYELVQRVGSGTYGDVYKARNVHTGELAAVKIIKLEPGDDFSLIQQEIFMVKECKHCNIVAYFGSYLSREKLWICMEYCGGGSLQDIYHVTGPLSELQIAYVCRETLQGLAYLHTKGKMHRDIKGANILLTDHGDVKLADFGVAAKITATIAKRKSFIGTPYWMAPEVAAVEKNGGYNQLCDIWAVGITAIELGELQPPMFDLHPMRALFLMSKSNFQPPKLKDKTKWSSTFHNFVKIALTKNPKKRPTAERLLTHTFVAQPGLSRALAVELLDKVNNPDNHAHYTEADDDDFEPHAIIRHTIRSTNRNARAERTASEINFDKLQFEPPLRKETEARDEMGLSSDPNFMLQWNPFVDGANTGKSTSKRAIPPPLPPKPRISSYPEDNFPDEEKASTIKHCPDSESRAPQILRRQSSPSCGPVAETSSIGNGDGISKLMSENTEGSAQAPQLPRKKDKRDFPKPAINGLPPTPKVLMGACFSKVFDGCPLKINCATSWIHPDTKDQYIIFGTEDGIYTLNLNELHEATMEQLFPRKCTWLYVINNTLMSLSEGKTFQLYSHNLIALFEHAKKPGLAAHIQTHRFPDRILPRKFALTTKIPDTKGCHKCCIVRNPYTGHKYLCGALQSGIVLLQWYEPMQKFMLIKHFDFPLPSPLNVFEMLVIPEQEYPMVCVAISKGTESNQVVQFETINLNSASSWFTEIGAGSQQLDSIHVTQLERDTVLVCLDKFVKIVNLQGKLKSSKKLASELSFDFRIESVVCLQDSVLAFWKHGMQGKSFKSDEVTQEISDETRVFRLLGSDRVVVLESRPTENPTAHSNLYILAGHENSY
Sequence of human MAP4K4 kinase domain (O95819 25-289): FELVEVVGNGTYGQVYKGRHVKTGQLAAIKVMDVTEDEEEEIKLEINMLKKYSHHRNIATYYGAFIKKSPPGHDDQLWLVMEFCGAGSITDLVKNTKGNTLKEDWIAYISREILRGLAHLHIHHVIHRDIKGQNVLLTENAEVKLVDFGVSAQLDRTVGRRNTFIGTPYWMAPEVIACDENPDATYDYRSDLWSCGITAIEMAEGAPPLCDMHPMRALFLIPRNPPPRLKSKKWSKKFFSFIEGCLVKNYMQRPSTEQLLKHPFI
Sequence of MLK3/MAP3K11 (Q16584 whole entry): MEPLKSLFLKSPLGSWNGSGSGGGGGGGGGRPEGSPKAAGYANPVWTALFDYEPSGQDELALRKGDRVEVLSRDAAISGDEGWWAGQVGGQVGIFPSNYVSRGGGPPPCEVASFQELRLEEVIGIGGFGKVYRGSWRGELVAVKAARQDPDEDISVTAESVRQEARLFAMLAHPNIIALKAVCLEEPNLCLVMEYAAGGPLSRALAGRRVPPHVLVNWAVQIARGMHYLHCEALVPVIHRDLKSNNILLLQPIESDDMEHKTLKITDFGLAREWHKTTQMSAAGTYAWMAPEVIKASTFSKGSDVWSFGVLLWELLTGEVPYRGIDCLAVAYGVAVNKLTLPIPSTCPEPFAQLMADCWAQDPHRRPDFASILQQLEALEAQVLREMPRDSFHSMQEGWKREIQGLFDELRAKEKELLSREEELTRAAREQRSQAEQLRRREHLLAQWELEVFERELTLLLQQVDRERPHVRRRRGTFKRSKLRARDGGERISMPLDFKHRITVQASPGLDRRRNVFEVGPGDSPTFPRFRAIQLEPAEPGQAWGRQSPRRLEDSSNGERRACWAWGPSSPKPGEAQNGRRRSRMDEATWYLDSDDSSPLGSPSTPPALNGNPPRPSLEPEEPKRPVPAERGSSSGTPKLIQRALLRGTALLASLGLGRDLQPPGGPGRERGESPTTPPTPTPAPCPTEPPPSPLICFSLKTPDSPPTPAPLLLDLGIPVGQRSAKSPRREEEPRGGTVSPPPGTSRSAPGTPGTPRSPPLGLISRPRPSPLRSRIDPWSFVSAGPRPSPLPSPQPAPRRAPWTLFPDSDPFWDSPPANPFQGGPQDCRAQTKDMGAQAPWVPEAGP
Sequence of ABL1 (P00519 whole entry, species assumed): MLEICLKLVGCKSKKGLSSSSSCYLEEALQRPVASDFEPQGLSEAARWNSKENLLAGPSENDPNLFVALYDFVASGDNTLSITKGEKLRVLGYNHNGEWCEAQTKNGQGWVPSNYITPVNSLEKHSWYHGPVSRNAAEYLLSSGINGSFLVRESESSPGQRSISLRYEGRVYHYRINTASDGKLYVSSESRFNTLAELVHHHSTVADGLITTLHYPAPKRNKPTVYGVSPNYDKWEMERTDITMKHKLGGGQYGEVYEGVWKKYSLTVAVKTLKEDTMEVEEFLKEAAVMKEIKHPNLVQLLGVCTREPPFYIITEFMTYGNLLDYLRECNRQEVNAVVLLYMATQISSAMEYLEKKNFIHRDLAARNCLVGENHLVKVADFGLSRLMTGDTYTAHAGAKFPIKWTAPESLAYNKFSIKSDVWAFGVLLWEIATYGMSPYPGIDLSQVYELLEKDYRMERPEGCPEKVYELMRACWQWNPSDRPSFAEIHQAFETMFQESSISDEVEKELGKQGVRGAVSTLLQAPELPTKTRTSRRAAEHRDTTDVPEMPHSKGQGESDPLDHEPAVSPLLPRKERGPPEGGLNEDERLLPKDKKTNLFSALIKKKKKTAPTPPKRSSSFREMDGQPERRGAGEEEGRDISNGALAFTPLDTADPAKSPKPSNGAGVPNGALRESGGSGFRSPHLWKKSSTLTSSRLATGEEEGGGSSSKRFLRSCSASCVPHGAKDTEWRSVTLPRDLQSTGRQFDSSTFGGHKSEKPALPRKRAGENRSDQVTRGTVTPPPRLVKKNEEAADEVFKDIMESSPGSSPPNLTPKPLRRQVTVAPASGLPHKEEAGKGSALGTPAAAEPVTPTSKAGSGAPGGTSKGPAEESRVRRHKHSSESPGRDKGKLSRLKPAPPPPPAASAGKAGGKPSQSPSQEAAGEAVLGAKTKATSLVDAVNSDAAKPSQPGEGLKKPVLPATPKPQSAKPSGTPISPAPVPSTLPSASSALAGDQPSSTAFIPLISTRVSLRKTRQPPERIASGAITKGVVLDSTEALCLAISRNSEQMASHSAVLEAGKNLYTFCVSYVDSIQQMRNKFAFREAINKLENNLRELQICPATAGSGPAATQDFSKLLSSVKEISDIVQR
Sequence of MLK1/MAP3K9 (P80192 whole entry): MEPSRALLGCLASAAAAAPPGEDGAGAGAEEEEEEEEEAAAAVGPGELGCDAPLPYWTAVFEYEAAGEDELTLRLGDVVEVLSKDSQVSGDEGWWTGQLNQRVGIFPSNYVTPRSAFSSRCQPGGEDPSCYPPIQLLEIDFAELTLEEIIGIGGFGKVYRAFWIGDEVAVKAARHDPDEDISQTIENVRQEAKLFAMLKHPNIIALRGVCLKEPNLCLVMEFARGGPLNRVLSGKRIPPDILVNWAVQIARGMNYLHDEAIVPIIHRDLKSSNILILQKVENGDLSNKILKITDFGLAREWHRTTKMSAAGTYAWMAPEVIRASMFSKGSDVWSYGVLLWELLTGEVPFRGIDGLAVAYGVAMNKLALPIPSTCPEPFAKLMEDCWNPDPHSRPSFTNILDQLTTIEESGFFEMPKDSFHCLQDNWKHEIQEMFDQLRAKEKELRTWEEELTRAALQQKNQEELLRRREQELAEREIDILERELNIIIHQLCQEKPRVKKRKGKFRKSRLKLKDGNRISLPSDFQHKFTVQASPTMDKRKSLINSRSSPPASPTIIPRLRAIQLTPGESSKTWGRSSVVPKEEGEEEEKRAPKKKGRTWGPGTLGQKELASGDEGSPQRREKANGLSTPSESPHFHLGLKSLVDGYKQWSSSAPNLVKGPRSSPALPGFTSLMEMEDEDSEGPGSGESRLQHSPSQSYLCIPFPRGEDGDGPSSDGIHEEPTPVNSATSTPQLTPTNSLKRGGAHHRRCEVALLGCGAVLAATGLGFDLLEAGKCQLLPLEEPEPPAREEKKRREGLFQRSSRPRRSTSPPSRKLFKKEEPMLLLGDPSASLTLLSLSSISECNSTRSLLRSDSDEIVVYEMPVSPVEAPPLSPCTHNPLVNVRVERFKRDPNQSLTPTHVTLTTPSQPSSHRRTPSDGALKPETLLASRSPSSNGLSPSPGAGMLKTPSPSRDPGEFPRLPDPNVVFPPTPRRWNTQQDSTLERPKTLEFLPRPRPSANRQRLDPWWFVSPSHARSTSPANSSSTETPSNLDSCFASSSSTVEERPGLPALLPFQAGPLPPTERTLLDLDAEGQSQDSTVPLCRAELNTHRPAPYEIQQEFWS
Sequence of GLK/MAP4K3 (Q8IVH8 whole entry): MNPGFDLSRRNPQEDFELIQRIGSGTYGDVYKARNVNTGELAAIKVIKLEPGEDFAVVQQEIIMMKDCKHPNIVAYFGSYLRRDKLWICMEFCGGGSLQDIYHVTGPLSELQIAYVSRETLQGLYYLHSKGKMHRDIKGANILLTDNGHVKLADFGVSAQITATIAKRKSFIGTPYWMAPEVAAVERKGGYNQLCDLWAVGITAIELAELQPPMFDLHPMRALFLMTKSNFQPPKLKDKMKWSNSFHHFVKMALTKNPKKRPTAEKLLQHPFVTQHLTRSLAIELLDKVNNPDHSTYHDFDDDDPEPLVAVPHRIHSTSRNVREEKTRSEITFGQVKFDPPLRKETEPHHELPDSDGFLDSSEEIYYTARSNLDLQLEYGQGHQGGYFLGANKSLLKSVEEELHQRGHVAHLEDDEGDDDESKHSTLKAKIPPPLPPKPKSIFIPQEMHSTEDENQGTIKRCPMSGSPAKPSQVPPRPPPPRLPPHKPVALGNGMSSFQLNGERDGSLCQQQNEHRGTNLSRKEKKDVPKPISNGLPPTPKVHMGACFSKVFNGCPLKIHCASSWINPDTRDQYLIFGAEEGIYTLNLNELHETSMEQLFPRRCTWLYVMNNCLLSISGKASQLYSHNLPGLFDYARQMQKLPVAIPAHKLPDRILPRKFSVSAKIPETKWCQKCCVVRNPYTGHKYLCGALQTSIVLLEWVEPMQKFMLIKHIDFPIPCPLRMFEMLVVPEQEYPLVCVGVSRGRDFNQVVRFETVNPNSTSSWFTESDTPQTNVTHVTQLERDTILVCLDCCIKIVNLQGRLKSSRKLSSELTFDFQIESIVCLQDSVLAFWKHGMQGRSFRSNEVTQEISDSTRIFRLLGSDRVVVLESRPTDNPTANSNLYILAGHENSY

Compound | IC50 (TNIK/MAP4K7) [nM] | fold selectivity for MAP4K4 over MLK3/MAP3K11 (MLK3/MAP3K11) | IC50 (MLK3/MAP3K11) [nM] | IC50 [1, 5] [nM] | IC50 [1, 6] [nM] | fold selectivity for MAP4K4 over VEGFR (VEGFR) | pIC50 VEGFR (VEGFR) | IC50 (MINK1/MAP4K6) [nM] | fold selectivity for MAP4K4 over FLT3 (FLT3) | IC50 (FLT3) [nM] | fold selectivity for MAP4K4 over MLK1/MAP3K9 (MLK1/MAP3K9) | IC50 (MLK1/MAP3K9) [nM] | fold selectivity for MAP4K4 over GCK/MAP4K2 (GCK/MAP4K2) | IC50 (GCK/MAP4K2) [nM] | fold selectivity for MAP4K4 over KHS/MAP4K5 (KHS/MAP4K5) | IC50 (KHS/MAP4K5) [nM] | fold selectivity for MAP4K4 over NUAK (NUAK) | pIC50 NUAK (NUAK) | fold selectivity for MAP4K4 over GLK/MAP4K3 (GLK/MAP4K3) | IC50 (GLK/MAP4K3) [nM] | other results
O=C1NCCN1c1ccc(-c2cn(-c3ccccc3)c3nc[nH]c(=O)c23)cc1 [Ex-61] | 5.01 | (63) fold | 63.1 | ≤ 100 | 1.58 | (501) fold | 6.3 | 7.94 | (31622) fold | 31600 | (63) fold | 63.1 | (316) fold | 316 | (316) fold | 1000 | (63) fold | 7.2 | (31622) fold | 31600 | fold selectivity for MAP4K4 over GSK3β (GSK3β): (31622) fold; IC50 (GSK3β; read-out: pIC50 GSK3β (converted)): 31600 nM; fold selectivity for MAP4K4 over ABL1 (ABL1): (794) fold; IC50 (ABL1): 794 nM; fold selectivity for MAP4K4 over Aurora B (Aurora B): (31622) fold; IC50 (Aurora B): 31600 nM
Oc1ncnc2c1c(-c1ccccc1)cn2-c1ccccc1 [F1386-0303, 5,7-diphenyl-7H-pyrrolo[2,3-d]pyrimidin-4-ol, reference compound] |  |  |  |  |  |  |  |  |  |  |  |  |  |  |  |  |  |  |  |  | pIC50 GSK3β (GSK3β): 4.57; protection from H2O2 or menadione [2]: virtually complete; pIC50 MAP4K4 [1]: 7.46; IC50 ([1]; read-out: IC50 (MAP4K4)): 34 nM; pIC50 FLT3 (FLT3): 5.66; reduction of human cardiac muscle cell death [3]: 50%; pIC50 ABL1 (ABL1): 4.52; clearance and oral exposure in mice (in words) [4]: rapidly cleared and accumulates only to low levels; AUCinf ([4]; po, 50 mg/kg): 2162; pIC50 Aurora B (Aurora B): 4.88
O=c1[nH]cnc2c1c(-c1ccc(OCCO)cc1F)cn2-c1ccccc1 [Ex-56, 5-[2-Fluoro-4-(2-hydroxy-ethoxy)-phenyl]-7-phenyl-3,7-dihydro-pyrrolo[2,3-d]pyrimidin-4-one] | 20 | (39) fold | 200 | ≤ 100 | 5.01 | (6309) fold | 4.5 | 7.94 | (3162) fold | 15800 | (39) fold | 200 | (79) fold | 398 | (199) fold | 1000 | (501) fold | 5.6 | (6309) fold | 31600 | fold selectivity for MAP4K4 over ABL1 (ABL1): (398) fold; IC50 (ABL1): 2000 nM; fold selectivity for MAP4K4 over Aurora B (Aurora B): (1258) fold; IC50 (Aurora B): 6310 nM
